# Laboratory results: patent US12479877B2, “Methods for purifying steviol glycosides and uses of the same” (PureCircle Sdn. Bhd., priority 2010, dated 2025)
# “Also recorded” adds a separate entry of the source.
# Key:
# Type in all cases: in vivo, human
# panelists [1] = assay: Sensory properties in acidified water (pH 3.0) at 500 mg/L, 20 panelists; conditions: 500 ppm, acidified water pH 3.0, 20 panelists
# Description: The sensory properties of Reb X were evaluated in acidified water (pH 3.0 by phosphoric acid) at 500 mg/L concentration by 20 panelists.
# one experienced panelist = assay: Taste evaluation of Reb X against Reb A and Reb D, multi-sip and swallow taste method; conditions: for Taste Properties: 500 ppm in citric buffer (pH 3.22), room temperature
# Description: The taste properties of a sample of Reb X were studied against Rebaudioside A (Reb A) and Rebaudioside D (Rb D) samples. Rb A was obtained from Cargill (lot #1040) and Reb-D was obtained from PureCircle (lot #11/3/08).
# The samples were prepared at 500 ppm for sweetness evaluation by adding moisture compensated mass into a 100 mL sample of carbon-treated water and citric buffer solutions.
# Citric buffer was prepared by mixing 1.171 g/L citric acid, 0.275 g/L sodium citrate and 0.185 g/L sodium benzoate with carbon-treated water, with a final pH of 3.22. The mixtures were moderately stirred at room temperature. The Reb X sample was then evaluated against the two control Reb A and Reb D samples in water and citric buffer at room temperature (RT) and at 4° C. in an ice bath by one experienced panelist for any tasting quality determinations using the controlled, multi-sip and swallow taste method shown below:
# 1. Take first sip (˜1.8 mL) of control and swallow. Wait for 15-25 sec, then take second sip of control and wait for 15-25 sec.
# 2. Take first sip of the experimental sample, wait for 15-25 sec, then take second sip. Compare to second sip of control.
# 3. Repeat steps #1 and #2 for the third and fourth sips of the control and experimental samples to confirm the initial finding.
# The taste evaluation results of the Reb X samples against the control Reb A and Reb D samples at 500 ppm in citric buffer (CB) at 4° C. and RT are described in Table 4.
# panelists [2] = assay: Sensory properties in acidified water (pH 3.0) at 500 mg/L, 20 panelists; conditions: 10,000 ppm, acidified water pH 3.0, 20 panelists
SMILES,Astringent taste: Number of panelists detected the attribute (panelists [1]),Bitter taste: Number of panelists detected the attribute (panelists [1]),Licorice taste: Number of panelists detected the attribute (panelists [1]),Overall evaluation: Satisfactory (number of panelists of 20) (panelists [1]),Quality of sweet taste: Bitter aftertaste (number of panelists of 20) (panelists [1]),Sweet Aftertaste: Number of panelists detected the attribute (panelists [1]),Taste Properties (one experienced panelist),"Astringency, sweetness intense (depth) and bitterness notes (one experienced panelist; 500 ppm, citrate buffer system, compared with Reb A)",Astringent taste: Number of panelists detected the attribute (panelists [2]),Bitter taste: Number of panelists detected the attribute (panelists [2]),Licorice taste: Number of panelists detected the attribute (panelists [2]),Overall evaluation: Satisfactory (number of panelists of 20) (panelists [2]),Quality of sweet taste: Clean (number of panelists of 20) (panelists [2]),Sweet Aftertaste: Number of panelists detected the attribute (panelists [2])
"C=C1C[C@@]23CC[C@H]4[C@@](C)(CCC[C@@]4(C)C(=O)O[C@@H]4O[C@H](CO)[C@@H](O)[C@H](O)[C@H]4O)[C@@H]2CC[C@]1(O[C@@H]1O[C@H](CO)[C@@H](O)[C@H](O[C@@H]2O[C@H](CO)[C@@H](O)[C@H](O)[C@H]2O)[C@H]1O[C@@H]1O[C@H](CO)[C@@H](O)[C@H](O)[C@H]1O)C3 [Reb A, Rebaudioside A]",20,20,20,(1 of 20),(20 of 20),20,"Delayed sweetness onset, significant lingering sweet aftertaste,; also recorded: licorice and bitter off-notes",–,–,–,–,–,–,–
"C=C1C[C@@]23CC[C@H]4[C@@](C)(CCC[C@@]4(C)C(=O)O[C@@H]4O[C@H](CO)[C@@H](O)[C@H](O)[C@H]4O[C@@H]4O[C@H](CO)[C@@H](O)[C@H](O)[C@H]4O)[C@@H]2CC[C@]1(O[C@@H]1O[C@H](CO)[C@@H](O)[C@H](O[C@@H]2O[C@H](CO)[C@@H](O)[C@H](O)[C@H]2O)[C@H]1O[C@@H]1O[C@H](CO)[C@@H](O)[C@H](O)[C@H]1O)C3 [Reb D, Rebaudioside D]",3,3,2,(11 of 20),–,5,"Delayed sweetness onset, less sweetness linger as compared to Reb; also recorded: A, no bitter off-notes",did not have the astringency or sweetness intense (depth) and bitterness notes compared to that of the Reb A,–,–,–,–,–,–
C=C1C[C@@]23CC[C@H]4[C@@](C)(CCC[C@@]4(C)C(=O)O[C@@H]4O[C@H](CO)[C@@H](O)[C@H](O)[C@H]4O)[C@@H]2CC[C@]1(O[C@@H]1O[C@H](CO)[C@@H](O)[C@H](O)[C@H]1O[C@@H]1O[C@H](CO)[C@@H](O)[C@H](O)[C@H]1O)C3 [Stevioside],20,20,20,(0 of 20),(20 of 20),20,–,–,–,–,–,–,–,–
OC[C@H]1O[C@@](CO)(O[C@H]2O[C@H](CO)[C@@H](O)[C@H](O)[C@H]2O)[C@@H](O)[C@@H]1O [Sucrose],–,–,–,–,–,–,–,–,0,0,0,(20 of 20),Clean (20,0
